According to patent publication US9458198B1, “Cyclic peptide-based NPR-B agonists” (priority 2009, dated 2016):
Where two headings read alike, the source gives them in different places. Where a SMILES comes first, the peptide text is derived from it. Bridges are numbered along the chain shown (N, C = ends).

Experiments:
[1] = system: human colon adenocarcinoma cells; conditions: 1 mM, within 24 h; cited from earlier work
chondrocytes = conditions: low doses 10 to 100 pM, at the highest dose; cited from earlier work
[2] = system: small-cell lung cancer cells; conditions: 100 nM; cited from earlier work
NPR-A = NPR-A (Rattus norvegicus, UniProt P18910); assay: cell-based
NPR-A, sequence (P18910 29-1057): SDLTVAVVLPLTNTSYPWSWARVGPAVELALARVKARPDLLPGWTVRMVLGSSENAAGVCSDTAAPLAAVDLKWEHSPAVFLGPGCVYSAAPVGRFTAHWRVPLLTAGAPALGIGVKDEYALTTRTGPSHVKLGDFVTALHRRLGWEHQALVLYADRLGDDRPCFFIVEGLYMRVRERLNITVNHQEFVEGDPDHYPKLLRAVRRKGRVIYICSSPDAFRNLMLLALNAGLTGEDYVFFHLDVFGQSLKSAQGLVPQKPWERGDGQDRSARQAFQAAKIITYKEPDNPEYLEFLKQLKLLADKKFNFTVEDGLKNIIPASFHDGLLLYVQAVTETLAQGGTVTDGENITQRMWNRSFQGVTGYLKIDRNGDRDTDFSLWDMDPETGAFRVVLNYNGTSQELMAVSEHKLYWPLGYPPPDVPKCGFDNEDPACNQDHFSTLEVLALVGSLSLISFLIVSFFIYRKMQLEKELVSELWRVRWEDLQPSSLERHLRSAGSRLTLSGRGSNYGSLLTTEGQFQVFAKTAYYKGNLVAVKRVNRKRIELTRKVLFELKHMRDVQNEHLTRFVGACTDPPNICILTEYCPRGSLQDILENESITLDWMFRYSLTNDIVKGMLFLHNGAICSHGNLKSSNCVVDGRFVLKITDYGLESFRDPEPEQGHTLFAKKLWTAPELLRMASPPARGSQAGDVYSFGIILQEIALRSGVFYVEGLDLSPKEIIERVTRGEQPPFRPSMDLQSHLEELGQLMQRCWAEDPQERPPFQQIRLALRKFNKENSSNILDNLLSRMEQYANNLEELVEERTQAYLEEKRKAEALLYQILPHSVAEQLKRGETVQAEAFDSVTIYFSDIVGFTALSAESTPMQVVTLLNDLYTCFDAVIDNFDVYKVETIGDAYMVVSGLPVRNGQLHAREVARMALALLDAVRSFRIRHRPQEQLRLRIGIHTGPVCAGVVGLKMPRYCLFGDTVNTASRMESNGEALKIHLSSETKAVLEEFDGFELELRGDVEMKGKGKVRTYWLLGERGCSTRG
Description: In this homogenous assay, the cells are stimulated in suspension with the test compound and the production of cyclic GMP (cGMP) is determined, from which EC50 values are calculated.
Detached cells are harvested in 20 ml PBS and centrifuged for 10 min at 200×g at room temperature.
20 μl of cells (2.5×10^3 cells) are added to each well of a 96 well white optical bottom tissue culture plate (Nunc, Germany). 10 μl of compound dilution is added and the cells are stimulated for 25 min. at room temperature. The stimulation is stopped by addition of 20 μl of Lysis buffer (reagent included in cGMP Assay Kit).
Determination of cGMP: The amount of produced cGMP in the cells is determined using HitHunter™ cGMP Assay kit (DiscoveRX) according to manufacturer's instructions.
Dilutions are prepared in Medium supplemented with IBMX (1 mM).

NPR-B = molecular target: T1, NPR-B (Homo sapiens, UniProt P20594); assay: NPR-B induced production of cyclic GMP in GTM-3 cells; assay type: cell-based; conditions: GTM-3 cells
T1 construct: a functional assay using endogenously NPR-B expressing GTM-3 cells; endogenous in cells; host or cells: GTM-3 (transformed human trabecular meshwork cells)
T1 sequence (P20594 23-1047): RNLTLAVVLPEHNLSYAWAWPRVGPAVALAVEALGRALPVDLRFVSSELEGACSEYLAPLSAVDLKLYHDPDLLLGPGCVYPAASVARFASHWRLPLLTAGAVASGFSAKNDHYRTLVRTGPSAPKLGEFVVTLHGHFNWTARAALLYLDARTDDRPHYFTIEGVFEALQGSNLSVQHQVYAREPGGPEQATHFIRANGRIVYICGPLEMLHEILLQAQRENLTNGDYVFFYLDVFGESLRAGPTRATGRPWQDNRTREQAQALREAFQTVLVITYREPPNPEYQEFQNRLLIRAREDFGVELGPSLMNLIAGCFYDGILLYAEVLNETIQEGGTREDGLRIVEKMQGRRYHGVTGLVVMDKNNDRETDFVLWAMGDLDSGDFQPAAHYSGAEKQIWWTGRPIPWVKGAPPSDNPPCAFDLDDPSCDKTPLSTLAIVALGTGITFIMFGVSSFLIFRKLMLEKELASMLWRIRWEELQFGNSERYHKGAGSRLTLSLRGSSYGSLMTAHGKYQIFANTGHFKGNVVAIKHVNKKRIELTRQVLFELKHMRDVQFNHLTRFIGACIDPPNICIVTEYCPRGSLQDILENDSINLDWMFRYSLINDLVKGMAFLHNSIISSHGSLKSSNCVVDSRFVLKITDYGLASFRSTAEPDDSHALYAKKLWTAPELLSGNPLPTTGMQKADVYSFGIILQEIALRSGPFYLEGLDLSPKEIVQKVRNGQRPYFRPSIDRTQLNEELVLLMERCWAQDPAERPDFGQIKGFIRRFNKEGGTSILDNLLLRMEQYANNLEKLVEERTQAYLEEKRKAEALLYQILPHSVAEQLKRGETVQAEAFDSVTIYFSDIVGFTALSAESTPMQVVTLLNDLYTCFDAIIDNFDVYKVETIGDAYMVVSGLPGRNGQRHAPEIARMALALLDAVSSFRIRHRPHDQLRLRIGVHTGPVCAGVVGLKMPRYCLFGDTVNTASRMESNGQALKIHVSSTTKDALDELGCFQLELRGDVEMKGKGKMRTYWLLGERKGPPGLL
Summary of the method: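 GTM-3 cells with endogenous NPR-B were washed and preincubated 15 min at room temperature in medium with 1 mM IBMX. Compounds were tested at final 45 μM to 20 nM; dose-dependent cGMP production gave Emax and EC50.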

[3] = system: human renal carcinoma cells; conditions: 100 μM; cited from earlier work
AtT-20 cells = conditions: cited from earlier work
[4] = group needs both EC50 and Emax criteria, checked A then B then C, read-out: Activity (group): NPR-B activation, EC50 and Emax (CNP = 100%)

CC[C@H](C)[C@@H]1NC(=O)[C@H](CCCNC(=N)N)NC(=O)[C@H](CC(=O)O)NC(=O)[C@H](CCSC)NC(=O)[C@H](CCCNC(=N)N)NC(=O)CNC(=O)CNC(=O)[C@H](Cc2ccccc2)NC(=O)[C@@H](NC(=O)[C@H](CO)NC(=O)[C@H](CO)NC(=O)[C@H](CCCNC(=N)N)NC(=O)[C@H](CCCNC(=N)N)NC(=O)[C@H](CC(C)C)NC(=O)[C@@H](N)CO)CSSC[C@@H](C(=O)N[C@@H](CC(N)=O)C(=O)N[C@@H](CO)C(=O)N[C@@H](Cc2ccccc2)C(=O)N[C@@H](CCCNC(=N)N)C(=O)N[C@@H](Cc2ccc(O)cc2)C(=O)O)NC(=O)CNC(=O)[C@H](CC(C)C)NC(=O)CNC(=O)[C@H](CO)NC(=O)[C@H](CCC(N)=O)NC(=O)[C@H](C)NC(=O)CNC1=O [ANP, atrial natriuretic peptide]
decrease in cell number [1]: up to 97%

CC[C@H](C)[C@@H]1NC(=O)[C@H](CCCNC(=N)N)NC(=O)[C@H](CC(=O)O)NC(=O)[C@H](CC(C)C)NC(=O)[C@H](CCCCN)NC(=O)[C@H](CC(C)C)NC(=O)CNC(=O)[C@H](Cc2ccccc2)NC(=O)[C@@H](NC(=O)CNC(=O)[C@H](CCCCN)NC(=O)[C@H](CO)NC(=O)[C@H](CC(C)C)NC(=O)CN)CSSC[C@@H](C(=O)O)NC(=O)CNC(=O)[C@H](CC(C)C)NC(=O)CNC(=O)[C@H](CO)NC(=O)[C@H](CCSC)NC(=O)[C@H](CO)NC(=O)CNC1=O [CNP, C-type natriuretic peptide]
increase in cellularity (chondrocyte proliferation) (chondrocytes): up to 43%
decrease in the number of cells [2]: 39%
EC50 (NPR-A): 1600 nM
EC50 (NPR-B; EC50, cyclic GMP production, FIG. 2, 4-Parameter Logistic Equation): 38.8 nM
decrease in cell number [3]: 10%
stimulation of cGMP production (AtT-20 cells): up to 200 fold

CCCCCC(=O)N[C@H]1CSSC[C@@H](C(N)=O)NC(=O)[C@H](CO)NC(=O)C2(CCOCC2)NC(=O)[C@H](CCCNC(=N)N)NC(=O)[C@H](CC(=O)O)NC(=O)[C@H](CC(C)C)NC(=O)[C@H](CCCCN)NC(=O)[C@H](CC(C)C)NC(=O)CNC(=O)[C@H](Cc2ccccc2)NC(=O)[C@@H](C)NC1=O [compound 116]
EC50 (NPR-B; [4]): < 15000 nM

CCCCCC(=O)N[C@H]1CSSC[C@@H](C(N)=O)NC(=O)[C@H](CO)NC(=O)C2(CCSCC2)NC(=O)[C@H](CCCNC(=N)N)NC(=O)[C@H](CC(=O)O)NC(=O)[C@H](CC(C)C)NC(=O)[C@H](CCCCN)NC(=O)[C@H](CC(C)C)NC(=O)CNC(=O)[C@H](Cc2ccccc2)NC(=O)[C@@H](C)NC1=O [compound 117]
EC50 (NPR-B; [4]): < 15000 nM

CC[C@H](C)[C@@H]1NC(=O)[C@H](CCCNC(=N)N)NC(=O)[C@H](CC(=O)O)NC(=O)[C@H](CCSC)NC(=O)[C@H](CCCNC(=N)N)NC(=O)CNC(=O)CNC(=O)[C@H](Cc2ccccc2)NC(=O)[C@H](Cc2c[nH]cn2)NC(=O)[C@@H](NC(=O)[C@@H](N)CCSC)CSSC[C@@H](C(=O)N[C@@H](Cc2ccc(O)cc2)C(=O)N[C@@H](CCCNC(=N)N)C(N)=O)NC(=O)[C@H](CO)NC1=O [mini-ANP, reference compound] (H-MCHFGGRMDRISCYR-NH2; disulfide 2-13)
Emax (NPR-B; GTM3, FIG. 2, CNP = 100%, read-out: Emax (maximum activation) relative to CNP): 0%
EC50 (NPR-B; FIG. 2, highest concentration 45 μM, read-out: EC50, cyclic GMP production): > 45000 nM
